Data as given in PubChem BioAssay (NCI).
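The compound was tested at five concentrations on cells cultured in 96-well plates, with a 48-hour exposure period. GI50 is the concentration that inhibits growth by half. Definition used: TGI = concentration required for complete inhibition of growth.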

Assays:
Test in all cases: inhibition of tumour cell growth, NCI panel, 48 h
K-562 leukemia = tested on: K-562 leukemia
CAKI-1 renal = tested on: CAKI-1 renal
SF-539 CNS = tested on: SF-539 CNS
EKVX NSCLC = tested on: EKVX NSCLC
TK-10 renal = tested on: TK-10 renal
HCC-2998 colon = tested on: HCC-2998 colon
SNB-75 CNS = tested on: SNB-75 CNS
SF-268 CNS = tested on: SF-268 CNS
NCI-H226 lung = tested on: NCI-H226 lung
HS 578T breast = tested on: HS 578T breast

| SMILES | TGI (K-562 leukemia) | TGI (CAKI-1 renal) | TGI (SF-539 CNS) | TGI (EKVX NSCLC) | TGI (TK-10 renal) | TGI (HCC-2998 colon) | TGI (SNB-75 CNS) | TGI (SF-268 CNS) | TGI (NCI-H226 lung) | GI50 (SF-268 CNS) | GI50 (NCI-H226 lung) | GI50 (K-562 leukemia) | GI50 (CAKI-1 renal) | GI50 (SF-539 CNS) | GI50 (TK-10 renal) | GI50 (HCC-2998 colon) | GI50 (SNB-75 CNS) | GI50 (HS 578T breast) | TGI (HS 578T breast) |
| --- | --- | --- | --- | --- | --- | --- | --- | --- | --- | --- | --- | --- | --- | --- | --- | --- | --- | --- | --- |
| CCN(CC)C(=O)CC12CCCCC1=Nc1ccccc12 (stereo not drawn) | > 100 µM | > 100 µM | > 100 µM | > 100 µM | > 100 µM | > 100 µM | > 100 µM |  |  |  |  |  |  |  |  |  |  |  |  |
| O=C(CC(=O)c1cccc([N+](=O)[O-])c1)C(=O)Nc1ccccc1 | > 100 µM | > 100 µM | > 100 µM | > 100 µM | > 100 µM | > 100 µM | > 100 µM | > 100 µM | > 100 µM |  |  |  |  |  |  |  |  |  |  |
| CN(C)C1CN(C(=O)c2cc(-c3ccc4ncnc(N5CCc6cc(F)c(Cl)cc65)c4c3)cnc2N)C1 | > 100 µM | > 100 µM | 5.07 µM |  | 4.95 µM | > 100 µM | 2.02 µM | > 100 µM | > 100 µM | 0.652 µM | 0.986 µM | 0.86 µM | 0.509 µM | 0.827 µM | 0.786 µM | 0.71 µM | 0.195 µM | 0.241 µM | 1.31 µM |
| CN(C)c1ccc(/C=c2/c3cc(O)ccc3n3c2cc(-c2ccccc2)[n+]3C)cc1 |  | > 100 µM |  |  | > 100 µM | > 100 µM | 1.95 µM | 1.55 µM | > 100 µM |  |  | 1.01 µM |  |  | 4.88 µM |  |  |  | 1.25 µM |
| Cc1ccccc1-n1c(CCl)nc2ccc(Br)cc2c1=O |  | 3.75 µM | 21.8 µM | 35 µM | 70.1 µM | 30.8 µM | 29 µM | 10.8 µM | 28.4 µM |  |  |  |  |  |  |  |  |  |  |
| O=C(CC1(O)C(=O)Nc2ccccc21)c1ccccc1O (stereo not drawn) | > 100 µM | > 100 µM | > 100 µM | > 100 µM | > 100 µM |  | > 100 µM | > 100 µM | > 100 µM |  |  |  |  |  |  |  |  |  |  |
| CCc1ccccc1NC(=O)C(=O)C1C(=O)N(c2ccccc2)N=C1N (stereo not drawn) | > 100 µM | > 100 µM | > 100 µM | > 100 µM | > 100 µM | > 100 µM | > 100 µM | > 100 µM | > 100 µM |  |  |  |  |  |  |  |  |  |  |
| CC1C(O)=C(O)c2ccccc2N1O (stereo not drawn) | > 100 µM | > 100 µM | > 100 µM | > 100 µM | > 100 µM | > 100 µM | > 100 µM | > 100 µM | > 100 µM |  |  |  |  |  |  |  |  |  |  |
| CCN(/N=C1\CC2C=CCN(C2)C(=O)Cc2c1[nH]c1ccccc21)S(=O)(=O)c1ccc(C)cc1 (stereo not drawn) | > 100 µM | > 100 µM | > 100 µM | > 100 µM | > 100 µM | > 100 µM | > 100 µM |  | 38.6 µM |  |  |  |  |  |  |  |  |  |  |
| COc1cc(C2CC(c3cccc(Nc4ccnc5cc(Cl)ccc45)c3)=NN2c2ccccc2)cc(OC)c1OC (stereo not drawn) | > 100 µM | > 100 µM | 18.1 µM |  | > 100 µM | 33.8 µM | > 100 µM | > 100 µM | > 100 µM | 75.5 µM | 41.2 µM | 3.75 µM | 2.52 µM | 3.08 µM | 9.57 µM | 5.32 µM | 6.6 µM | 9.22 µM | > 100 µM |
